One test has as its target T1, human RORγ (Homo sapiens, UniProt P51449).
T1 construct: human, NM_005060.3 and from Ser253 to Lys518; expressed in transfected cells; host or cells: CHO cells (transient co-transfection with pG5-Luc reporter)
T1 sequence (P51449 253-518): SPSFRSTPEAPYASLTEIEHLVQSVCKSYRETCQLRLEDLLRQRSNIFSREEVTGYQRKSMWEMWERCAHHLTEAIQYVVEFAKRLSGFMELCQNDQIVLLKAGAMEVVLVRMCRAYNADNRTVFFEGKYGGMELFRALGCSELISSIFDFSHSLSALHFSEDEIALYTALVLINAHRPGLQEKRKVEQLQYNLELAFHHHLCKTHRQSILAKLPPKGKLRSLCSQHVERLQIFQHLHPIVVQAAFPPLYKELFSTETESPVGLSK
The test is described as follows: Luciferase reporter gene assay of inhibitory effect against RORγ transcriptional activity (GAL4-hRORγ plasmid in CHO cells). It counts as cell-based. To be noted: read-out: LUC EC50 hRORg. A general note: In a reporter assay the amount or activity of a reporter protein is the signal.

In a further test the target is T2, mouse RORγ (Mus musculus, UniProt P51450).
T2 construct: mouse, NM_011281.2 and from Ile251 to Lys516; expressed in transfected cells; host or cells: CHO cells (transient co-transfection with pG5-Luc reporter)
T2 sequence (P51450 251-516): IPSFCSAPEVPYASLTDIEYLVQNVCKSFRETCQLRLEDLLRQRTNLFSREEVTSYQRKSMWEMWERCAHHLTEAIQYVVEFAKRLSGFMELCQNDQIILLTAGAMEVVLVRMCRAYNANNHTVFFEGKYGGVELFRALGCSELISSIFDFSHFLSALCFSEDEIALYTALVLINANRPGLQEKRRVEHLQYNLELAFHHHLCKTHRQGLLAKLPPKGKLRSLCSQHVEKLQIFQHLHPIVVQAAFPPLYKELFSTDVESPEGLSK
The test is described as follows: Luciferase reporter gene assay of inhibitory effect against RORγ transcriptional activity (GAL4-mRORγ plasmid in CHO cells). It counts as cell-based. Particulars: read-out: LUC EC50 mRORg. In outline:
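Readout is intracellular luciferase after 2-day compound exposure (8 concentrations, 0.1% DMSO) in CHO cells expressing GAL4 fused to mouse RORγ LBD residues Ile251–Lys516 plus pG5-Luc reporter. EC50 fitted from %-of-control; points showing resazurin-detected cytotoxicity dropped.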

By EC50 is commonly meant the concentration at which the effect is half-maximal. `Cc1cnc(NC(=O)C[C@H](CCC(=O)O)c2noc([C@H]3C[C@@H](CC(C)(C)C)C3)c2C2CC2)c(C)c1` [Example F-681]: the concentration giving a half-maximal response (EC50) at human RORγ and on mouse RORγ was less than 3 µM each time.
As to `Cc1ccc(NC(=O)C[C@H](CCC(=O)O)n2nnc([C@H]3C[C@@H](CC(C)(C)C)C3)c2C2CC2)c(Cl)c1` [Example F-682, (S)-5-(2-chloro-4-methyl-phenylcarbamoyl)-4-{5-cyclopropyl-4-[3-(2,2-dimethyl-propyl)-cyclobutyl]-[1,2,3]triazol-1-yl}pentanoic acid], the EC50 at human RORγ and at mouse RORγ was less than 3 µM in each case.
For `Cc1ccc(NC(=O)[C@H](CCC(=O)O)Cc2noc([C@H]3C[C@@H](CC(C)(C)C)C3)c2C2CC2)c(Cl)c1` [Example F-683], the EC50 on human RORγ and on mouse RORγ was less than 3 µM in each case.
As for `Cc1ccc(NC(=O)[C@@H](CCC(=O)O)Cc2noc([C@H]3C[C@@H](CC(C)(C)C)C3)c2C2CC2)c(Cl)c1` [Example F-684, (S)-4-(2-chloro-4-methyl-phenylcarbamoyl)-5-{4-cyclopropyl-5-[3-(2,2-dimethyl-propyl)-cyclobutyl]-isoxazol-3-yl}-pentanoic acid], the EC50 at human RORγ and on mouse RORγ was less than 3 µM throughout.
On to `Cc1ccc(NC(=O)[C@@H](CCC(=O)O)Cc2noc([C@H]3C[C@@H](CC(C)(C)C)C3)c2C2CC2)c(C)c1` [Example F-685], for which the concentration for a half-maximal effect (EC50) at human RORγ and at mouse RORγ was less than 3 µM in each case.
As for `CC(=O)N1CC(c2noc([C@H]3C[C@@H](CC(C)(C)C)C3)c2C2CC2)[C@@H](C(=O)Nc2ccc(C)cc2Cl)C1` (some centres unmarked) [Example F-686], the concentration for a half-maximal effect (EC50) at human RORγ and on mouse RORγ was less than 3 µM in each case.
For `Cc1ccc(NC(=O)C2CN(CC(=O)O)CC2c2noc([C@H]3C[C@@H](CC(C)(C)C)C3)c2C2CC2)c(Cl)c1` (some centres unmarked) [Example F-687], the EC50 on human RORγ and on mouse RORγ was less than 3 µM each time.
Consider `Cc1ccc(NC(=O)[C@H]2CN(C(=O)CCC(=O)O)C[C@@H]2c2noc([C@H]3C[C@@H](CC(C)(C)C)C3)c2C2CC2)c(Cl)c1` [Example F-688, 4-((3R,4R)-3-(2-Chloro-4-methyl-phenylcarbamoyl)-4-{4-cyclopropyl-5-[3-(2,2-dimethyl-propyl)-cyclobutyl]-isoxazol-3-yl}pyrrolidin-1-yl)-4-oxo-butanoic acid], for which the EC50 on human RORγ and on mouse RORγ was less than 3 µM throughout.
Take `Cc1ccc(NC(=O)C[C@H](CCCO)c2noc([C@H]3C[C@@H](CC(C)(C)C)C3)c2C2CC2)c(C)n1` [Example F-689]: the concentration for a half-maximal effect (EC50) on human RORγ and on mouse RORγ was less than 3 µM in each case.
As for `CCC(C)(C)C[C@H]1C[C@@H](c2onc([C@@H](CCC(=O)O)CC(=O)Nc3ccc(C)nc3C)c2C2CC2)C1` [Example F-692], the EC50 on human RORγ and at mouse RORγ was less than 3 µM in each case.
Take `COc1c(C)ccc(NC(=O)C[C@H](CCCO)c2noc([C@H]3C[C@@H](CC(C)(C)C)C3)c2C2CC2)c1C` [Example F-696]: the half-maximal effective concentration (EC50) on human RORγ and at mouse RORγ was less than 3 µM throughout.
With `CCC(C)(C)C[C@H]1C[C@@H](c2onc([C@@H](CCC(=O)O)CC(=O)Nc3ccc(C)nc3C)c2C(F)(F)F)C1` [Example F-697], the 50% effective concentration (EC50) at human RORγ and at mouse RORγ was less than 3 µM in each case.
For `Cc1ccc(NC(=O)C[C@H](CCCO)c2noc([C@H]3C[C@@H](CC(C)(C)C)C3)c2C2CC2)c(C)c1O` [Example F-699], the EC50 at human RORγ and on mouse RORγ was less than 3 µM throughout.
For the compound `Cc1ccc(NC(=O)C[C@H](CCC(=O)O)c2noc([C@H]3C[C@@H](CCc4ccccc4)C3)c2C2CC2)c(Cl)c1` [Example F-700], the EC50 at human RORγ and on mouse RORγ was less than 3 µM in each case.
Regarding `Cc1ccc(NC(=O)C[C@H](CCC(=O)O)c2nnn(-c3ccc(CCC4CCCC4)cc3)c2C2CC2)c(Cl)c1` [Example F-701], the 50% effective concentration (EC50) on human RORγ and on mouse RORγ was less than 3 µM in each case.
In the case of `Cc1ccc(NC(=O)C[C@H](CCCO)c2noc(-c3cc(CC(C)C)[nH]n3)c2C2CC2)c(F)c1` [Example F-702], the EC50 on human RORγ and on mouse RORγ was less than 3 µM throughout.
For `Cc1ccc(NC(=O)C[C@H](CCC(=O)O)n2nnc([C@H]3C[C@@H](CC(C)(C)C)C3)c2C2CC2)c(F)c1` [Example F-703], the EC50 at human RORγ and on mouse RORγ was less than 3 µM throughout.
As to `Cc1ccc(NC(=O)CCc2noc([C@H]3C[C@@H](CC(C)(C)C)C3)c2COCC(=O)O)c(Cl)c1` [Example F-704], the EC50 at human RORγ and at mouse RORγ was greater than 3 µM throughout.
For `Cc1ccc(NC(=O)C[C@H](CCCO)c2noc(-c3cn(CCC(C)(C)C)nc3C(F)(F)F)c2C2CC2)c(F)c1` [Example F-705], the EC50 at human RORγ and on mouse RORγ was greater than 3 µM throughout.
Take `Cc1ccc(NC(=O)C[C@H](CCC(=O)O)c2nnn([C@H]3C[C@@H](CC(C)(C)C(C)C)C3)c2C2CC2)c(F)c1` [Example F-706]: the EC50 on human RORγ and at mouse RORγ was less than 3 µM in each case.
For `Cc1ccc(NC(=O)C[C@H](CCC(=O)O)c2nnn([C@H]3C[C@@H](CC(C)(C)C(C)C)C3)c2C(F)(F)F)c(F)c1` [Example F-707], the EC50 at human RORγ and at mouse RORγ was less than 3 µM each time.
In the case of `Cc1ccc(NC(=O)C[C@H](CCC(=O)O)c2nnc([C@H]3C[C@@H](CC(C)(C)C(C)C)C3)n2C2CC2)c(Cl)c1` [Example F-708], the EC50 on human RORγ and at mouse RORγ was less than 3 µM throughout.
For the compound `Cc1ccc(NC(=O)C[C@H](CCCO)c2nnn([C@H]3C[C@@H](CC(C)(C)C(C)C)C3)c2C2CC2)c(F)c1` [Example F-709], the EC50 on human RORγ and at mouse RORγ was less than 3 µM throughout.
As for `Cc1ccc(NC(=O)C[C@H](CCCO)c2nnn([C@H]3C[C@@H](CC(C)(C)C(C)C)C3)c2C(F)(F)F)c(F)c1` [Example F-710], the EC50 at human RORγ and on mouse RORγ was less than 3 µM each time.
With `CC(C)(C)C[C@H]1C[C@@H](c2onc([C@@H](CCC(=O)O)CC(=O)NC3CCC3)c2C2CC2)C1` [Example F-711], the EC50 at human RORγ and at mouse RORγ was greater than 3 µM in each case.
`CC(C)(C)C[C@H]1C[C@@H](c2onc([C@@H](CCC(=O)O)CC(=O)NC34CC(C3)C4)c2C2CC2)C1` [Example F-712]: the EC50 at human RORγ and at mouse RORγ was greater than 3 µM each time.
On to `Cc1ccc(NC(=O)C[C@H](CCC(=O)O)c2nnn([C@H]3C[C@@H](CC(C)(C)C(C)C)C3)c2C2CC2)c(Cl)c1` [Example F-713], for which the EC50 on human RORγ and at mouse RORγ was less than 3 µM throughout.
As for `Cc1ccc(NC(=O)C[C@H](CCC(=O)O)c2onc([C@H]3C[C@@H](CC(C)(C)C)C3)c2C2CC2)c(Cl)c1` [Example F-715, (S)-5-(2-Chloro-4-methyl-phenylcarbamoyl)-4-{4-cyclopropyl-3-[3-(2,2-dimethyl-propyl)-cyclobutyl]-isoxazol-5-yl}-pentanoic acid], the EC50 on human RORγ and on mouse RORγ was less than 3 µM throughout.
With `Cc1ccc(NC(=O)C[C@H](CCC(=O)O)c2noc([C@H]3C[C@@H](CC(C)(C)CO)C3)c2C2CC2)c(Cl)c1` [Example F-716], the EC50 at human RORγ and at mouse RORγ was less than 3 µM each time.
As to `CC(C)(C)C[C@H]1C[C@@H](c2noc([C@@H](CCC(=O)O)CC(=O)Nc3ccc(Cl)cc3F)c2C2CC2)C1` [Example F-717], the concentration for a half-maximal effect (EC50) at human RORγ and on mouse RORγ was less than 3 µM in each case.
As for `CC(C)(C)C[C@H]1C[C@@H](c2noc([C@@H](CCC(=O)O)CC(=O)Nc3ccc(Cl)cc3Cl)c2C2CC2)C1` [Example F-718], the 50% effective concentration (EC50) at human RORγ and on mouse RORγ was less than 3 µM in each case.
Turning to `Cc1ccc(NC(=O)CCc2noc([C@H]3C[C@@H](CC(C)(C)C)C3)c2C2CC2)c(Cl)c1` [Example F-719], the 50% effective concentration (EC50) on human RORγ and at mouse RORγ was less than 3 µM in each case.
Take `CC(C)(C)C[C@H]1C[C@@H](c2onc(CCC(=O)Nc3ccc(Cl)cc3Cl)c2C2CC2)C1` [Example F-720]: the half-maximal effective concentration (EC50) on human RORγ and at mouse RORγ was less than 3 µM in each case.
For the compound `Cc1ccc(NC(=O)CCc2noc([C@H]3C[C@@H](CC(C)(C)C)C3)c2C2CC2)c(C)c1` [Example F-721], the EC50 on human RORγ and on mouse RORγ was less than 3 µM in each case.
On to `CC(C)(C)C[C@H]1C[C@@H](c2onc([C@@H](CCC(=O)O)CC(=O)NS(=O)(=O)C3CC3)c2C2CC2)C1` [Example F-722], for which the EC50 at human RORγ and on mouse RORγ was greater than 3 µM in each case.
`CC(C)(C)C[C@H]1C[C@@H](c2onc([C@@H](CCC(=O)O)CC(=O)NS(=O)(=O)c3ccccc3)c2C2CC2)C1` [Example F-723]: the half-maximal effective concentration (EC50) at human RORγ and at mouse RORγ was greater than 3 µM in each case.
`COCC(C)(C)C[C@H]1C[C@@H](c2onc([C@@H](CCC(=O)O)CC(=O)Nc3ccc(CO)cc3Cl)c2C2CC2)C1` [Example F-724]: the concentration giving a half-maximal response (EC50) at human RORγ and on mouse RORγ was less than 3 µM in each case.

Values taken from patent US20160137639A1, “TRIAZOLE-ISOXAZOLE COMPOUND AND MEDICAL USE THEREOF” (JAPAN TOBACCO INC., priority 2012, published 2016).
